“Also recorded” adds a separate entry of the source.
Key:
Format in all cases: biochemical
ALuc34 = assay: Relative luminescence intensity of lysates of COS-7 cells expressing ALuc34 after adding coelenterazine derivatives; conditions: for Ratios (A34/RLuc8.6-535): ALuc34 intensity over RLuc8.6-535 intensity, same substrate; for Luminescence intensity ALuc34 ave: COS-7 lysate 10 μL, LAS-4000; for substrate selectivity (RLuc8.6-535:ALuc, 1:x): luminescence intensity of ALuc compared with RLuc8.6-535, same substrate
Description: (§1) First, African monkey kidney-derived culture cells COS-7 were cultured in a 96-well plate until the culture area covered 90% of the lower area of the plate. At this stage, the plate wells growing cells were divided into two groups, and pcDNA3.1(+) vector, which expresses ALuc34 or RLuc8.6-535, was introduced into each group by the lipofection technique (TransIT-LT1), followed by further incubation for 16 hours. After incubation, the cells were lysed and an aliquot of the lysates (10 μL) is placed in a fresh 96-well plate. Different luminescent substrates were simultaneously added thereto using a multichannel pipette, and the relative luminescence intensity was immediately measured with a luminescence imaging analyzer LAS-4000 (FujiFilm). […] As used herein, “substrate selectivity” refers to a luminescence intensity of ALuc compared with the luminescence intensity of RLuc8.6-535 in the presence of the same luminescent substrate.

RLuc8.6-535 [1] = target: T1, RLuc8.6-535 (Renilla reniformis, UniProt P27652, A123S/A143M/A55T/C124A/D162E/I163L/K136R/M185L/M253L/S130A/S287L); conditions: COS-7 lysate 10 μL, LAS-4000
T1 construct: expressed in transfected cells; host or cells: COS-7 (African monkey kidney), lysate
Description: as §1

[2] = tested on: Cypridina luciferase (CLuc); assay: Dual assay with or without 0.1% SDS, CLuc luminescence
Description: (§2) It is advantageous for simultaneous measurement of multiple biomarkers if a dual assay can be performed in the presence of two or more bioluminescent enzymes. With this point in mind, luminescence was measured in the presence of two bioluminescent enzymes (ALuc and CLuc) (FIG. 5). First, COS-7 cells were cultured in a 96-well plate, and a plasmid that expresses ALuc or CLuc was transfected into each cellular compartment by lipofection. Under the conditions, CLuc is secreted, but ALuc largely remains inside the cells because of the endoplasmic reticulum localization signal (KDEL) attached to the terminus. 16 hours later, 10 μL of the CLuc culture solution was mixed with 2 μL of ALuc lysate. Then, the luminescence intensity was compared between the cases where 0.1% SDS was added or not, After addition of the luminescent substrates specific to ALuc and CLuc, respectively.

ALuc = assay: Dual assay with or without 0.1% SDS, ALuc luminescence; conditions: sulfate
Description: as §2

RLuc8.6-535 [3] = target: T1, RLuc8.6-535; conditions: 5 μL lysate + 30 μL substrate, AB-1850

T1 sequence (P27652 whole entry A55T/A123S/C124A/S130A/K136R/A143M/D162E/I163L/M185L/M253L/S287L): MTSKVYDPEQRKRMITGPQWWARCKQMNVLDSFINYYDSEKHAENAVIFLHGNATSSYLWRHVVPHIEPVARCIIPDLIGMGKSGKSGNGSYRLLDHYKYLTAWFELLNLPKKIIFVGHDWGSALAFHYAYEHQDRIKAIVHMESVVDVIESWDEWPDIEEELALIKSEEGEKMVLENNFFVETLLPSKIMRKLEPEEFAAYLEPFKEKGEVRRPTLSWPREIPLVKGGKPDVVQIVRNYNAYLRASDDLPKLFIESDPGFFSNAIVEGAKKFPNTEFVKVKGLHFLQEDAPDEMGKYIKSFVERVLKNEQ

Compound	Ratios (A34/RLuc8.6-535) (ALuc34)	Luminescence intensity ALuc34 ave (ALuc34) [RLU/μg/sec/mm2]	Luminescence intensity RLuc8.6-535 ave (RLuc8.6-535 [1]) [RLU/μg/sec/mm2]	effect on CLuc luminescence activity [2]	effect on ALuc luminescence activity (ALuc)	luminescence intensity with ALuc (in words) (ALuc34)	Spectrum peak RLuc8.6-535 (RLuc8.6-535 [3]) [nm]	luminescent substrate selectivity (ALuc34; ALuc versus RLuc8.6-535)	substrate selectivity (RLuc8.6-535:ALuc, 1:x) (ALuc34)
Oc1ccc(-c2cn3c(O)c(Cc4ccc(F)cc4)nc3c(CC3CCCC3)n2)cc1 [CTZ fcp, coelenterazine fcp, reference compound]	3	3712	1217	–	–	–	–	–	–
CCCCCCCCCCCCOS(=O)(=O)[O-].[Na+] [SDS, sodium dodecyl sulfate]	–	–	–	somewhat maintained luminescence activity	substantially deactivated; also recorded: mostly quenched	–	–	–	–
Oc1ccc(Cc2nc3c(CC4CCCC4)nc(-c4ccc(O)cc4)cn3c2O)cc1 [CTZ op, coelenterazine cp, reference compound]	8	40564	5354	–	–	–	–	–	–
O=c1c(Cc2ccc3ccccc3c2)nc2c(Cc3ccccc3)[nH]c(-c3ccc(O)cc3)cn1-2	81	172323	2132	–	–	–	–	–	–
O=c1c(Cc2ccccc2)nc2c(Cc3ccccc3)[nH]c(-c3ccc(O)cc3)cn1-2 [CTZ h, coelenterazine h]	91	1168658	12812	–	–	strong luminescence	545	–	–
coelenterazine ip [CTZ ip, reference compound]	4	8379	2200	–	–	–	535	–	–
O=c1c(Cc2ccc(I)cc2)nc2c(Cc3ccccc3)[nH]c(-c3ccc(O)cc3)cn1-2 [CTZ i, coelenterazine i]	9398	913540	97	–	–	high luminescence intensity	–	about 10,000 fold	9400
O=c1c(Cc2ccccc2)nc2c(Cc3ccccc3)[nH]c(-c3ccccc3)cn1-2 [CTZ 400, coelenterazine 400A]	3610	11624	3	–	–	luminescence intensity was almost not observed at all	–	–	–
O=c1c(Cc2ccc(F)cc2)nc2c(Cc3ccccc3)[nH]c(-c3ccc(O)cc3)cn1-2 [CTZ f, coelenterazine f]	134	956530	7151	–	–	–	547	–	134
Oc1ccc(-c2cn3c(O)c(Cc4ccccc4)nc3c(CC3CCCC3)n2)cc1 [CTZ hcp, coelenterazine hcp, reference compound]	3	5191	2058	–	–	–	–	–	–
